Measurements published in the kinase profiling compilation of Christmann-Franck et al. (2016).

What was measured:
Assay in all cases: KINOMEscan competition binding
Conditions in all cases: compound 10.0 µM
BMPR2 (human) = BMPR2 (human) (UniProt Q13873)
CDK13 (human) = CDK13 (human) (UniProt Q14004)
CHEK2 (human) = CHEK2 (human) (UniProt O96017)
CRK2 (P.falciparum) = CRK2 (P.falciparum) (UniProt P61075)
CSF1R (human) = CSF1R (human) (UniProt P07333)
CSNK1E (human) = CSNK1E (human) (UniProt P49674)
CSNK1G2 (human) = CSNK1G2 (human) (UniProt P78368)
DCLK2 (human) = DCLK2 (human) (UniProt Q8N568)
EPHB3 (human) = EPHB3 (human) (UniProt P54753)
EPHB6 (human) = EPHB6 (human) (UniProt O15197)
ERBB3 (human) = ERBB3 (human) (UniProt P21860)
[1] = tested on: FLT3 (human), P36888 [D835H]
GRK7 (human) = GRK7 (human) (UniProt Q8WTQ7)
HIPK2 (human) = HIPK2 (human) (UniProt Q9H2X6)
INSR (human) = INSR (human) (UniProt P06213)
IRAK3 (human) = IRAK3 (human) (UniProt Q9Y616)
LTK (human) = LTK (human) (UniProt P29376)
LYN (human) = LYN (human) (UniProt P07948)
MAP3K11 (human) = MAP3K11 (human) (UniProt Q16584)
MAP4K2 (human) = MAP4K2 (human) (UniProt Q12851)
MAPK3 (human) = MAPK3 (human) (UniProt P27361)
MAPK6 (human) = MAPK6 (human) (UniProt Q16659)
MARK2 (human) = MARK2 (human) (UniProt Q7KZI7)
MAST1 (human) = MAST1 (human) (UniProt Q9Y2H9)
MET (human) = MET (human) (UniProt P08581)
[2] = tested on: MET (human), P08581 [Y1235D]
NEK3 (human) = NEK3 (human) (UniProt P51956)
NEK4 (human) = NEK4 (human) (UniProt P51957)
NUAK2 (human) = NUAK2 (human) (UniProt Q9H093)
PIK3CG (human) = PIK3CG (human) (UniProt P48736)
PIM1 (human) = PIM1 (human) (UniProt P11309)
PIP5K1A (human) = PIP5K1A (human) (UniProt Q99755)
PKN1 (human) = PKN1 (human) (UniProt Q16512)
PRKCI (human) = PRKCI (human) (UniProt P41743)
PRPF4B (human) = PRPF4B (human) (UniProt Q13523)
RAF1 (human) = RAF1 (human) (UniProt P04049)
RIOK1 (human) = RIOK1 (human) (UniProt Q9BRS2)
SNRK (human) = SNRK (human) (UniProt Q9NRH2)
STK32A (human) = STK32A (human) (UniProt Q8WU08)
TAOK2 (human) = TAOK2 (human) (UniProt Q9UL54)

Chain of EPHB3 (human) (P54753 whole entry, looked up): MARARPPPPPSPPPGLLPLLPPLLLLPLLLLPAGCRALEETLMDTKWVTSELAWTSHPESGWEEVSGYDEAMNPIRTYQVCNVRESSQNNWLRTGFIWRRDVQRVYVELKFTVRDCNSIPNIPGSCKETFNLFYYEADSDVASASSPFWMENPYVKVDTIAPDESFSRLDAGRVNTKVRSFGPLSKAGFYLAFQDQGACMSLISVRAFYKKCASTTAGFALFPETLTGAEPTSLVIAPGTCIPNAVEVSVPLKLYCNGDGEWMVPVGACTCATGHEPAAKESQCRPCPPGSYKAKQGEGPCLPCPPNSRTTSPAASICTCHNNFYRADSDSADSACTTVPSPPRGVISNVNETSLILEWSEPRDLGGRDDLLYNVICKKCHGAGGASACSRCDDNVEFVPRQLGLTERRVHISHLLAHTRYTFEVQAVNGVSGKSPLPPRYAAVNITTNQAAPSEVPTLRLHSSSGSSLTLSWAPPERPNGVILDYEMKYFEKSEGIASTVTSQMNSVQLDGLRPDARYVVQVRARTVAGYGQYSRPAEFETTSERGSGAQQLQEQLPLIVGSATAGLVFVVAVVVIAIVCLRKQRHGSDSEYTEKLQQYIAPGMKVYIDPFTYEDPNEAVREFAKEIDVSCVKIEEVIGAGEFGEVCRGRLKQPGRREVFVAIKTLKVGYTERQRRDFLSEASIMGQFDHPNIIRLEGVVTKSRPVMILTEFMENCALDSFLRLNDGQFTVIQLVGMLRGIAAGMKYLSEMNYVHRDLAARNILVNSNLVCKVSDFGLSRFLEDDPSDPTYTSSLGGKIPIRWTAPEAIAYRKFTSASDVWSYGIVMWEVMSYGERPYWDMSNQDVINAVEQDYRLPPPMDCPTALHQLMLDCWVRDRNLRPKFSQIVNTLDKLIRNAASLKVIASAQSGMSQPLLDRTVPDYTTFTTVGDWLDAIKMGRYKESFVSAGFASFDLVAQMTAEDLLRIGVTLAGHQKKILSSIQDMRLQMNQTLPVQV
Chain of PIK3CG (human) (P48736 whole entry, looked up): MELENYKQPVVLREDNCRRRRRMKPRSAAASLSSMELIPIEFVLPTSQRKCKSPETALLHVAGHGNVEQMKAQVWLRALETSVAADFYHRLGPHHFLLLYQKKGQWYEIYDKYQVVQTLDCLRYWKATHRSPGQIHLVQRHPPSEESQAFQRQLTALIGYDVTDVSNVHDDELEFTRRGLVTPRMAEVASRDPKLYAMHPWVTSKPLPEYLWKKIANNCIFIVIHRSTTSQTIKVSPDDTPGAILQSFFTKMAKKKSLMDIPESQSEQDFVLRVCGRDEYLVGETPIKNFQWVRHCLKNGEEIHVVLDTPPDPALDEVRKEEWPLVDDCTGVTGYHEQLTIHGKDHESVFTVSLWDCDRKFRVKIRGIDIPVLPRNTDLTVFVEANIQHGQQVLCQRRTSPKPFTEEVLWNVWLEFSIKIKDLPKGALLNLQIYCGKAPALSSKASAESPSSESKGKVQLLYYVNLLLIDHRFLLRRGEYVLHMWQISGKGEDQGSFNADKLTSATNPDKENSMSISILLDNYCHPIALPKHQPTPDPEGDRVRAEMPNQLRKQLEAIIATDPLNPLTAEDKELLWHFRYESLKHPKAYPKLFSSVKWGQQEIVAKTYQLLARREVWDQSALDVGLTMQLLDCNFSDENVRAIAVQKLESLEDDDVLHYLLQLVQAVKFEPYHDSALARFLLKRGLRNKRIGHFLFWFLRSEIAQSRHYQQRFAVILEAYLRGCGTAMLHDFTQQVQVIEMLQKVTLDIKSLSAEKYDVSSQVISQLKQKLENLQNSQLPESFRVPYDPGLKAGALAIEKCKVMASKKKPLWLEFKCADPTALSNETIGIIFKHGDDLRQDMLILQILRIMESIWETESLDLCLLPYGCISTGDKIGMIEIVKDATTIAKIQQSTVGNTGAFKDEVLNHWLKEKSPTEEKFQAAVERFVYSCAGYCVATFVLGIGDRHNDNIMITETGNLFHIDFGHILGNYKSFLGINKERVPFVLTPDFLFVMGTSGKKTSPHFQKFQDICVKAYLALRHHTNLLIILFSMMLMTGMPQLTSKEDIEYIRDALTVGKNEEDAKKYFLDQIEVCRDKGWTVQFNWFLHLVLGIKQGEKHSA
Chain of RAF1 (human) (P04049 whole entry, looked up): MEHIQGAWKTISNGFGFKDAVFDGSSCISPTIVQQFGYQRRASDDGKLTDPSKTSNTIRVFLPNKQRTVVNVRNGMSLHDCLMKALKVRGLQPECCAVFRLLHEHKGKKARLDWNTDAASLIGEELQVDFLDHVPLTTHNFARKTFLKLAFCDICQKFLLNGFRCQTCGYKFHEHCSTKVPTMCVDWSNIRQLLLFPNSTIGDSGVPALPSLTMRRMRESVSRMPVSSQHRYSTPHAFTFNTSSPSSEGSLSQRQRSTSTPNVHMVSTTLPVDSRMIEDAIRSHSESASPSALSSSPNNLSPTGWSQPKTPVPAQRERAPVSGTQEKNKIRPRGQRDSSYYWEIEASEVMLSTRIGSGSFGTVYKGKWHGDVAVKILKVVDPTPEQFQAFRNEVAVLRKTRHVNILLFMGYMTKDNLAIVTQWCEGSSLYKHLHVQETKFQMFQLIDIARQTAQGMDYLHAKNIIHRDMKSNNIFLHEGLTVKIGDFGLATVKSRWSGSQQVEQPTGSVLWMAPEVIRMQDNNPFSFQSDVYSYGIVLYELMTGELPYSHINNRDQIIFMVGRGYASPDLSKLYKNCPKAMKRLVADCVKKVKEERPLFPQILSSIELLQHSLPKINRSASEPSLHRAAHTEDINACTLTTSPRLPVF
Chain of STK32A (human) (Q8WU08 whole entry, looked up): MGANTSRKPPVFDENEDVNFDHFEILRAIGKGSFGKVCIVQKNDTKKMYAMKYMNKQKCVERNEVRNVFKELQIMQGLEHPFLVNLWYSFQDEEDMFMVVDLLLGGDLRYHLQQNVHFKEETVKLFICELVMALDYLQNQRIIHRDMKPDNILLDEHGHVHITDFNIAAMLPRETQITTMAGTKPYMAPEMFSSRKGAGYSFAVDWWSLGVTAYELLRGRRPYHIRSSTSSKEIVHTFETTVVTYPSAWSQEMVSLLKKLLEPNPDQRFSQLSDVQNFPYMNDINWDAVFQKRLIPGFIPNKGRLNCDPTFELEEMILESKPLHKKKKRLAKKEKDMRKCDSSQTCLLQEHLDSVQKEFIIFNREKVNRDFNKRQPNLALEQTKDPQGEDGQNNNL
Chain of GRK7 (human) (Q8WTQ7 whole entry, looked up): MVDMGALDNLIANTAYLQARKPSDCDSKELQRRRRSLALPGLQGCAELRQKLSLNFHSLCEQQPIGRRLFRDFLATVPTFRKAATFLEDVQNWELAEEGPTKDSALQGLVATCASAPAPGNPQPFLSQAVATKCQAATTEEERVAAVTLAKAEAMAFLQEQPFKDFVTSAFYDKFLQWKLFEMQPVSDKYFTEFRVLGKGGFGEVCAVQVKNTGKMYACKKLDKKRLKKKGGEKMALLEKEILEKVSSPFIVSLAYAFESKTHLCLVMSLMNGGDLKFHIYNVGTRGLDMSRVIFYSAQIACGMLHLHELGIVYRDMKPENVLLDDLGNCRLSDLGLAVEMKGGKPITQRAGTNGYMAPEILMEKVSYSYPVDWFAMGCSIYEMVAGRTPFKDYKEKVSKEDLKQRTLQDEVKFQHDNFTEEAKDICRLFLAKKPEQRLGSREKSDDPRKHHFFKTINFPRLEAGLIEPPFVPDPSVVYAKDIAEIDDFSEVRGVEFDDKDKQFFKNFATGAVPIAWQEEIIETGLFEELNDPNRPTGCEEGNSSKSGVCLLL
Chain of HIPK2 (human) (Q9H2X6 whole entry, looked up): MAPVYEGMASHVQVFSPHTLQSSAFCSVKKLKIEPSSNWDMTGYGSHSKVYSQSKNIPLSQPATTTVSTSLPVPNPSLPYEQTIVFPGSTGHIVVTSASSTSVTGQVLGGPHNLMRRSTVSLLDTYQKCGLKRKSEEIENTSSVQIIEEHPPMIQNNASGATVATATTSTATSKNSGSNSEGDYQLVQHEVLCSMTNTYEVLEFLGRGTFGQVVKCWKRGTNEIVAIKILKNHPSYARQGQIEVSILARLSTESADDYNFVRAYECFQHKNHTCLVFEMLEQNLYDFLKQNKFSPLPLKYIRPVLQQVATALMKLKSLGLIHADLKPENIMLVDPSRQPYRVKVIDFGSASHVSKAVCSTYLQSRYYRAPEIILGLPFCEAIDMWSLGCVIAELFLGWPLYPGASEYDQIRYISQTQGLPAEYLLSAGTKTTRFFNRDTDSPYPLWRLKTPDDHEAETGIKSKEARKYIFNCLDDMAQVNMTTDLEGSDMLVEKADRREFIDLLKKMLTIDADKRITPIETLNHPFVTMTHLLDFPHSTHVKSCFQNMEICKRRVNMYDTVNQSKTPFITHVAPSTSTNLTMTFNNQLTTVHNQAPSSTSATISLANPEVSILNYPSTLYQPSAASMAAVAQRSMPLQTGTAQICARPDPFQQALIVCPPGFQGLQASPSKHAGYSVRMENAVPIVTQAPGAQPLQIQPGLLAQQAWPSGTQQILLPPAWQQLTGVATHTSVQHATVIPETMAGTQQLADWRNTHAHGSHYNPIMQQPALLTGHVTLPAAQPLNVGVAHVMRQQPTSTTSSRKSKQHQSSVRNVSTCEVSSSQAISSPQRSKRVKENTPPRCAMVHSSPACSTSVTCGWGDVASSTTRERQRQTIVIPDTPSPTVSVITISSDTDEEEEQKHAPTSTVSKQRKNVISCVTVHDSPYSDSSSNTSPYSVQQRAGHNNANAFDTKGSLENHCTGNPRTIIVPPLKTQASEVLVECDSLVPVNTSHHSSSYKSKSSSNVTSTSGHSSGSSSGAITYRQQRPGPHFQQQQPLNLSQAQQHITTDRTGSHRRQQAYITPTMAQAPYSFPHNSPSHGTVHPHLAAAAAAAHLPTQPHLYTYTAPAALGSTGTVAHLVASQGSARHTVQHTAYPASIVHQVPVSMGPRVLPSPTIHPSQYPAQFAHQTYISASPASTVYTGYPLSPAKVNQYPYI

Compound	kinase still bound, per cent of control (BMPR2 (human))	kinase still bound, per cent of control (CDK13 (human))	kinase still bound, per cent of control (CHEK2 (human))	kinase still bound, per cent of control (CRK2 (P.falciparum))	kinase still bound, per cent of control (CSF1R (human))	kinase still bound, per cent of control (CSNK1E (human))	kinase still bound, per cent of control (CSNK1G2 (human))	kinase still bound, per cent of control (DCLK2 (human))	kinase still bound, per cent of control (EPHB3 (human))	kinase still bound, per cent of control (EPHB6 (human))	kinase still bound, per cent of control (ERBB3 (human))	kinase still bound, per cent of control [1]	kinase still bound, per cent of control (GRK7 (human))	kinase still bound, per cent of control (HIPK2 (human))	kinase still bound, per cent of control (INSR (human))	kinase still bound, per cent of control (IRAK3 (human))	kinase still bound, per cent of control (LTK (human))	kinase still bound, per cent of control (LYN (human))	kinase still bound, per cent of control (MAPK3 (human))	kinase still bound, per cent of control (MAPK6 (human))	other results
C=CC(=O)Nc1cc(-n2c(=O)ccc3cnc4ccc(-c5cn[nH]c5)cc4c32)ccc1C	4.6%	100%	87%	100%	90%	88%	94%	100%	100%	54%	94%	14%	52%	48%	90%	0.7%	100%	100%	100%	95%	kinase still bound, per cent of control (MAP3K11 (human)): 100%; kinase still bound, per cent of control (MAP4K2 (human)): 9.4%; kinase still bound, per cent of control (MARK2 (human)): 83%; kinase still bound, per cent of control (MAST1 (human)): 85%; kinase still bound, per cent of control (MET (human)): 89%; kinase still bound, per cent of control [2]: 100%; kinase still bound, per cent of control (NEK3 (human)): 77%; kinase still bound, per cent of control (NEK4 (human)): 83%; kinase still bound, per cent of control (NUAK2 (human)): 46%; kinase still bound, per cent of control (PIK3CG (human)): 4.2%; kinase still bound, per cent of control (PIM1 (human)): 70%; kinase still bound, per cent of control (PIP5K1A (human)): 44%; kinase still bound, per cent of control (PKN1 (human)): 100%; kinase still bound, per cent of control (PRKCI (human)): 99%; kinase still bound, per cent of control (PRPF4B (human)): 84%; kinase still bound, per cent of control (RAF1 (human)): 100%; kinase still bound, per cent of control (RIOK1 (human)): 53%; kinase still bound, per cent of control (SNRK (human)): 100%; kinase still bound, per cent of control (STK32A (human)): 100%; kinase still bound, per cent of control (TAOK2 (human)): 76%
NC(=O)Nc1cc(-c2cccc(F)c2)sc1C(=O)N[C@@H]1CCCNC1	3.4%	100%	3.8%	100%	0%	11%	0.95%	2.4%	95%	50%	28%	0%	0.15%	13%	27%	6.4%	0.3%	0.65%	91%	54%	kinase still bound, per cent of control (MAP4K2 (human)): 0%; kinase still bound, per cent of control (MARK2 (human)): 0.9%; kinase still bound, per cent of control (MAST1 (human)): 4.1%; kinase still bound, per cent of control (MET (human)): 3.1%; kinase still bound, per cent of control [2]: 0.6%; kinase still bound, per cent of control (NEK3 (human)): 43%; kinase still bound, per cent of control (NEK4 (human)): 22%; kinase still bound, per cent of control (NUAK2 (human)): 2.2%; kinase still bound, per cent of control (PIK3CG (human)): 100%; kinase still bound, per cent of control (PIM1 (human)): 48%; kinase still bound, per cent of control (PIP5K1A (human)): 0%; kinase still bound, per cent of control (PKN1 (human)): 0%; kinase still bound, per cent of control (PRKCI (human)): 11%; kinase still bound, per cent of control (PRPF4B (human)): 7.4%; kinase still bound, per cent of control (RAF1 (human)): 100%; kinase still bound, per cent of control (RIOK1 (human)): 0.4%; kinase still bound, per cent of control (SNRK (human)): 2.6%; kinase still bound, per cent of control (STK32A (human)): 1%; kinase still bound, per cent of control (TAOK2 (human)): 35%
C[C@@H](Oc1cc(-c2cnn(C3CCNCC3)c2)cnc1N)c1c(Cl)ccc(F)c1Cl	28%	24%	100%	95%	0.15%	100%	100%	1.2%	100%	0.2%	81%	6.8%	42%	93%	0.2%	0.95%	0.3%	13%	100%	90%	kinase still bound, per cent of control (MAP3K11 (human)): 81%; kinase still bound, per cent of control (MARK2 (human)): 20%; kinase still bound, per cent of control (MAST1 (human)): 100%; kinase still bound, per cent of control (NEK3 (human)): 100%; kinase still bound, per cent of control (NEK4 (human)): 25%; kinase still bound, per cent of control (NUAK2 (human)): 5.5%; kinase still bound, per cent of control (PIK3CG (human)): 100%; kinase still bound, per cent of control (PIM1 (human)): 100%; kinase still bound, per cent of control (PIP5K1A (human)): 0.1%; kinase still bound, per cent of control (PKN1 (human)): 38%; kinase still bound, per cent of control (PRKCI (human)): 35%; kinase still bound, per cent of control (PRPF4B (human)): 48%; kinase still bound, per cent of control (RAF1 (human)): 93%; kinase still bound, per cent of control (RIOK1 (human)): 3.4%; kinase still bound, per cent of control (SNRK (human)): 100%; kinase still bound, per cent of control (STK32A (human)): 86%; kinase still bound, per cent of control (TAOK2 (human)): 0.9%
